Source: patent publication US9896445B2, “Heterocyclic inhibitors of ERK1 and ERK2 and their use in the treatment of cancer” (Asana Biosciences, LLC, priority 2015, dated 2018)

Experiments:
[1] = target: T1, ERK1 (Homo sapiens, UniProt P27361); experiment: ERK1 HTRF (biochemical) assay
T1 construct: purchased Jubilant Biosys
Protocol: ERK1 and ERK2 HTRF (Biochemical) Assays
These assays employed a homogeneous time resolved fluorescence (HTRF) technique. […] The plate was incubated at room temperature for 60 min with shaking. […] The IC50 values (half maximal inhibitory concentration values) were subsequently determined using a sigmoidal dose-response curve (variable slope) in GraphPad Prism® 5 software.

[2] = target: T2, ERK2 (Homo sapiens, UniProt P28482); experiment: ERK2 HTRF (biochemical) assay
T2 construct: purchased Jubilant Biosys
T2 sequence (P28482 whole entry): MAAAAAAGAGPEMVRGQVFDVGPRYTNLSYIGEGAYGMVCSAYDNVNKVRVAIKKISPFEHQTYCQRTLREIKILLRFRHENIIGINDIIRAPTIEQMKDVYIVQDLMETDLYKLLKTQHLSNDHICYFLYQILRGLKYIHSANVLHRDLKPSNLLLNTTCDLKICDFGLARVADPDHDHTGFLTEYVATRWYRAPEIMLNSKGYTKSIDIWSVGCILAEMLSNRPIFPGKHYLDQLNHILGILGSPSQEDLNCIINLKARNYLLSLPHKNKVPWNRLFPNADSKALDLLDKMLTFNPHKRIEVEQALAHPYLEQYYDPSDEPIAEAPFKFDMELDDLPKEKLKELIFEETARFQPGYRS
Outline: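 Readout was time-resolved FRET between europium anti-phospho-MBP and streptavidin-APC after a 60-min room-temperature kinase step. That step used ERK2 (25 nM in enzyme mix), biotinylated MBP peptide (1 uM) and ATP (24 uM) from the substrate mix, in pH 7.5 Tris buffer.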

T1 sequence (P27361 whole entry): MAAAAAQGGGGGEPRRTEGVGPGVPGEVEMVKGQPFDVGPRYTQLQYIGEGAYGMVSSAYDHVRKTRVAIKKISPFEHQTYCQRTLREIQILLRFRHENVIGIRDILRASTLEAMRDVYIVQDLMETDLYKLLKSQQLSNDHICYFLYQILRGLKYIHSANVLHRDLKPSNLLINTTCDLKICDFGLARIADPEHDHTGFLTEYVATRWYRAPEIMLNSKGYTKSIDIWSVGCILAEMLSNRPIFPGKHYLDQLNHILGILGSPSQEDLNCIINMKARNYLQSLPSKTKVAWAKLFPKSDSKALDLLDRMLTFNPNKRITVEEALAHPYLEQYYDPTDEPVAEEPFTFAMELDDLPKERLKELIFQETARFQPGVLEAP

IC50 ([1]; HTRF) | IC50 ([2]; HTRF) | melting point | IC50 ([1]; HTRF biochemical assay) | IC50 ([2]; HTRF biochemical assay) | SMILES
< 50 nM | ≤ 50 nM | 117 °C |  |  | Cc1cnc(N[C@H]2CCOC2)nc1-n1cnc(C(=O)N[C@H](CO)c2cccc(Cl)c2)c1 [Compound 192, N-((S)-1-(3-Chlorophenyl)-2-hydroxyethyl)-1-(5-methyl-2-(((S)-tetra-hydrofuran-3-yl)amino)pyrimidin-4-yl)-1H-imidazole-4-carboxamide]
< 50 nM | ≤ 50 nM |  |  |  | Cc1cnc(Nc2ccc3c(c2)CC(=O)N3)nc1-n1ccc(C(=O)NC(CO)c2cccc(Cl)c2)c1 (stereo not shown) [Compound 198, N-(1-(3-chloro-phenyl)-2-hydroxy-ethyl)-1-(5-methyl-2-((2-oxoindolin-5-yl)amino)pyrimidin-4-yl)-1H-pyrrole-3-carboxamide]
 |  |  | < 50 nM | ≤ 50 nM | Cc1cnc(NC2CCOCC2)nc1-n1cnc(C(=O)N[C@H](CNCC(C)(C)C)c2cccc(Cl)c2)c1 [Example 337, (S)-N-(1-(3-chlorophenyl)-2-(neopentylamino)-ethyl)-1-(5-methyl-2-((tetrahydro-2H-pyran-4-yl)amino)-pyrimidin-4-yl)-1H-imidazole-4-carboxamide]
< 50 nM | ≤ 50 nM |  |  |  | Cc1cnc(Nc2cccc(N3CCOCC3)c2)nc1-n1cnc(C(=O)N[C@H](CN)c2cccc(Cl)c2)c1 [Example 272, (S)-N-(2-amino-1-(3-chlorophenyl)ethyl)-1-(5-methyl-2-((3-morpholino-phenyl)amino)pyrimidin-4-yl)-1H-imidazole-4-carboxamide]
100 to 500 nM | 500 to 2500 nM |  |  |  | CC[C@@H](CO)Nc1ncc(C)c(-n2ccc(C(=O)N[C@@H](CO)c3cccc(Cl)c3)c2)n1 [Compound 218, N-((R)-1-(3-chlorophenyl)-2-hydroxyethyl)-1-(2-(((S)-1-hydroxy-butan-2-yl)amino)-5-methylpyrimidin-4-yl)-1H-pyrrole-3-carboxamide]
< 50 nM | ≤ 50 nM |  |  |  | Cc1cnc(NC2CC(F)(F)C2)nc1-n1cnc(C(=O)NCc2cccc(Cl)c2CO)c1 [Example 273, N-(3-chloro-2-(hydroxymethyl)benzyl)-1-(2-((3,3-difluorocyclobutyl)amino)-5-methyl-pyrimidin-4-yl)-1H-imidazole-4-carboxamide]
< 50 nM | ≤ 50 nM |  |  |  | Cc1cnc(NC(CO)CO)nc1-n1cnc(C(=O)N[C@H](CO)c2cccc(Cl)c2)c1 [Example 260, (S)-N-(1-(3-chlorophenyl)-2-hydroxyethyl)-1-(2-((1,3-dihydroxy-propan-2-yl)amino)-5-methylpyrimidin-4-yl)-1H-imidazole-4-carboxamide]
< 50 nM | ≤ 50 nM |  |  |  | Cc1cnc(Nc2ccc(F)cc2Cl)nc1-n1cnc(C(=O)NC(CO)c2cccc(Cl)c2)c1 (stereo not shown) [Compound 166, 1-(2-((2-chloro-4-fluorophenyl)amino)-5-methyl-pyrimidin-4-yl)-N-(1-(3-chlorophenyl)-2-hydroxyethyl)-1H-imidazole-4-carboxamide]
< 50 nM | ≤ 50 nM |  |  |  | Cc1cnc(Nc2ccc(F)c(N3CCNCC3)c2)nc1-n1ccc(C(=O)NC(CO)c2cccc(Cl)c2)c1 (stereo not shown) [Compound 213, N-(1-(3-chlorophenyl)-2-hydroxyethyl)-1-(2-((4-fluoro-3-(piperazin-1-yl)phenyl)amino)-5-methylpyrimidin-4-yl)-1H-pyrrole-3-carboxamide]
< 50 nM | ≤ 50 nM |  |  |  | Cc1cnc(NC2CCOC2)cc1-n1ccc(C(=O)NC(CO)c2cccc(Cl)c2)c1 (stereo not shown) [Compound 165, N-(1-(3-chloro-phenyl)-2-hydroxyethyl)-1-(5-methyl-2-((tetrahydrofuran-3-yl)amino)pyridin-4-yl)-1H-pyrrole-3-carboxamide]
50 to 100 nM | ≤ 50 nM |  |  |  | Cc1cnc(Nc2ccc(C3CCNCC3)cc2)nc1-n1ccc(C(=O)NC(CO)c2cccc(Cl)c2)c1 (stereo not shown) [Compound 215, N-(1-(3-chlorophenyl)-2-hydroxyethyl)-1-(5-methyl-2-((4-(piperidin-4-yl)phenyl)amino)pyrimidin-4-yl)-1H-pyrrole-3-carboxamide]
< 50 nM | ≤ 50 nM |  |  |  | Cc1cnc(Nc2ccccc2)cc1-n1cnc(C(=O)NC(CO)c2cccc(Cl)c2)c1 (stereo not shown) [Compound 180, N-(1-(3-chloro-phenyl)-2-hydroxyethyl)-1-(5-methyl-2-(phenyl-amino)pyridin-4-yl)-1H-imidazole-4-carboxamide]
 |  |  | < 50 nM | ≤ 50 nM | Cc1cnc(N[C@@H]2CCOC2)nc1-n1cnc(C(=O)NCc2cccc(Cl)c2CO)c1 [Example 344, (R)-N-(3-chloro-2-(hydroxymethyl)-benzyl)-1-(5-methyl-2-((tetrahydrofuran-3-yl)amino)-pyrimidin-4-yl)-1H-imidazole-4-carboxamide]

The remaining lines, values behind:

SMILES | IC50 ([1]; HTRF) | IC50 ([2]; HTRF) | melting point | IC50 ([1]; HTRF biochemical assay) | IC50 ([2]; HTRF biochemical assay)
Cc1cnc(Nc2ccc(F)cc2)cc1-n1ccc(C(=O)NC(CN)c2cccc(Cl)c2)c1 (stereo not shown) [Compound 159, N-(2-Amino-1-(3-chlorophenyl)ethyl)-1-(2-((4-fluorophenyl)amino)-5-methylpyridin-4-yl)-1H-pyrrole-3-carboxamide] | 50 to 100 nM | ≤ 50 nM | 118.1 °C |  | 
Cc1cnc(Nc2ccc3c(c2)OCO3)nc1-n1cc(NC(=O)N[C@H](CO)c2ccccc2)cn1 [Compound 55, (S)-1-(1-(2-(benzo[d][1,3]dioxol-5-ylamino)-5-methylpyrimidin-4-yl)-1H-pyrazol-4-yl)-3-(2-hydroxy-1-phenylethyl)urea] | 50 to 100 nM | 50 to 100 nM | 208.3 °C |  | 
O=C(NC(CO)c1cccc(Cl)c1)c1cn(-c2ccnc(Nc3ccccc3)c2)cn1 (stereo not shown) [Compound 77, N-(1-(3-chlorophenyl)-2-hydroxyethyl)-1-(2-(phenylamino)pyridin-4-yl)-1H-imidazole-4-carboxamide] | < 50 nM | ≤ 50 nM | 130 °C |  | 
Cc1cnc(Nc2ccc(F)cc2)nc1-n1ccc(C(=O)NC(CO)c2cccc(Cl)c2)c1 (stereo not shown) [Compound 113, N-(1-(3-chloro-phenyl)-2-hydroxy-ethyl)-1-(2-((4-fluorophenyl)amino)-5-methyl-pyrimidin-4-yl)-1H-pyrrole-3-carboxamide] | 50 to 100 nM | ≤ 50 nM |  |  | 
O=C(NC(CO)c1ccccc1)c1ccn(-c2nc(Nc3ccccc3Cl)ncc2F)c1 (stereo not shown) [Compound 67, 1-(2-((2-chloro-phenyl)amino)-5-fluoropyrimidin-4-yl)-N-(2-hydroxy-1-phenylethyl)-1H-pyrrole-3-carboxamide] | < 50 nM | ≤ 50 nM |  |  | 
Cc1cnc(Nc2ccc3c(c2)OC(F)(F)O3)nc1-n1ccc(C(=O)NC(CN)c2cccc(Cl)c2)c1 (stereo not shown) [Compound 136, N-(2-amino-1-(3-chlorophenyl)ethyl)-1-(2-((2,2-difluorobenzo[d][1,3]dioxol-5-yl)amino)-5-methylpyrimidin-4-yl)-1H-pyrrole-3-carboxamide] | 50 to 100 nM | ≤ 50 nM |  |  | 
O=C(NC(CO)c1cccc(Cl)c1)c1ccn(-c2cc(Nc3ccccc3)ncc2Cl)c1 (stereo not shown) [Compound 124, 1-(5-chloro-2-(phenylamino)pyridin-4-yl)-N-(1-(3-chlorophenyl)-2-hydroxyethyl)-1H-pyrrole-3-carboxamide] | < 50 nM | ≤ 50 nM |  |  | 
O=C(NC(CO)c1cccc(Cl)c1)c1cn(-c2ccnc(Nc3ccc4c(c3)CCO4)c2)cn1 (stereo not shown) [Compound 163, N-(1-(3-chlorophenyl)-2-hydroxyethyl)-1-(2-((2,3-dihydrobenzofuran-5-yl)amino)pyridin-4-yl)-1H-imidazole-4-carboxamide] | < 50 nM | ≤ 50 nM |  |  | 
O=C(Nc1cnn(-c2ccnc(Nc3ccc(F)cc3Cl)n2)c1)N[C@H](CO)c1cccc(Cl)c1 [Compound 20, (S)-1-(1-(2-((2-chloro-4-fluorophenyl)amino)pyrimidin-4-yl)-1H-pyrazol-4-yl)-3-(1-(3-chlorophenyl)-2-hydroxyethyl)urea] | < 50 nM | ≤ 50 nM |  |  | 
O=C(N[C@H](CO)c1cccc(Cl)c1)c1ccn(-c2ccnc(Nc3ccc(F)cc3Cl)n2)c1 [Compound 112, (S)-1-(2-((2-chloro-4-fluorophenyl)-amino)pyrimidin-4-yl)-N-(1-(3-chlorophenyl)-2-hydroxyethyl)-1H-pyrrole-3-carboxamide] | < 50 nM | ≤ 50 nM |  |  | 
Cc1cnc(NC2CCCOC2)nc1-n1ccc(C(=O)N[C@H](CO)c2cccc(Cl)c2)c1 (stereo partly drawn) [Compound 156, N-((S)-1-(3-chloro-phenyl)-2-hydroxy-ethyl)-1-(5-methyl-2-((tetrahydro-2H-pyran-3-yl)amino)-pyrimidin-4-yl)-1H-pyrrole-3-carboxamide] | < 50 nM | ≤ 50 nM |  |  | 
Cc1cnc(Nc2ccc(F)cc2)nc1-n1cnc(C(=O)NC(CO)c2ccccc2)c1 (stereo not shown) [Compound 118, 1-(2-((4-fluoro-phenyl)amino)-5-methylpyrimidin-4-yl)-N-(2-hydroxy-1-phenylethyl)-1H-imidazole-4-carboxamide] | 50 to 100 nM | ≤ 50 nM |  |  | 
Cc1cnc(NC2CC2)nc1-n1cc(C(=O)NC(CO)c2cccc(Cl)c2)cn1 (stereo not shown) [Compound 40, N-(1-(3-chlorophenyl)-2-hydroxyethyl)-1-(2-(cyclopropyl-amino)-5-methylpyrimidin-4-yl)-1H-pyrazole-4-carboxamide] | 50 to 100 nM | 50 to 100 nM |  |  | 
Cc1cnc(Nc2ccc(F)cc2Cl)nc1-n1ccc(C(=O)N[C@H](CO)c2cccc(Cl)c2)c1 [Compound 29, (S)-1-(2-((2-Chloro-4-fluorophenyl)amino)-5-methylpyrimidin-4-yl)-N-(1-(3-chlorophenyl)-2-hydroxyethyl)-1H-pyrrole-3-carboxamide] | < 50 nM | ≤ 50 nM |  |  | 
